{"source": "ChEMBL document CHEMBL5729456", "about": "“Compounds useful in HIV therapy” (2022)", "data": [{"experiment": "Jurkat Latency Reversal Assay: Jurkat HIV-luciferase clones were maintained in RPMI medium 1640 (Gibco by Life Technologies) containing 10% (vol/vol) fetal bovine serum (SAFC/Sigma-Aldrich) and 25 units/mL penicillin, 25 units/mL streptomycin (Gibco by Life Technologies), and were split 1:4 every 3 to 4 days to maintain a cell density of ˜0.3 to 1 million cells/mL. The Jurkat clones were maintained with the addition of 500 nM EFV in the medium. Three Jurkat cell clones (C16, I15, and N6), each harboring one or two integrated HIV proviruses expressing the luciferase reporter gene, were added at equal amounts for a total of 5,000 cells per well to 384-well plates containing compound titrations. Dose-response testing was performed on compounds dissolved in dimethyl sulfoxide (DMSO, Fisher Scientific, Merelbeke, Belgium) dispensed in duplicate serial 3-fold, 14-point titrations using a D300e Digital Droplet Dispenser (Hewlett-Packard) to give final assay concentrations of 10 μM to 2.1 pM in 50 μL of medium at 0.5% DMSO (vol/vol) final concentration. Cells and compound were incubated at 37° C. for 48 hours, unless otherwise indicated, followed by the addition of 20 μL of Steady-Glo® Luciferase (Promega). Luminescence resulting from the induction of the virally expressed luciferase was measured using an EnVision 2102 Multilabel Plate Reader (Perkin Elmer). Dose-response relationships were analyzed with GraphPad PRISM 6 using a four-parameter logistic regression model to calculate the concentration of compound that gives half-maximal response (EC50) and the maximal percent activation compared to the vehicle control.", "units": {"EC50": "nM"}, "values": [{"molecule": "CN[C@@H](C)C(=S)N[C@H]1CCS[C@H]2CC(C)(C)[C@@H](C(=O)N[C@H]3c4ccccc4C[C@H]3C(=O)N[C@H]3CC[C@H](NC(=O)[C@@H]4Cc5ccccc5[C@@H]4NC(=O)[C@H]4N5C(=O)[C@@H](NC(=S)[C@H](C)NC)CCS[C@H]5CC4(C)C)CC3)N2C1=O", "EC50": 32}, {"molecule": "CN[C@@H](C)C(=O)N[C@H]1CCS[C@H]2CC(C)(C)[C@@H](C(=O)N[C@H](C(=O)N[C@H]3CC[C@H](NC(=O)[C@@H](NC(=O)[C@H]4N5C(=O)[C@@H](NC(=O)[C@H](C)NC)CCS[C@H]5CC4(C)C)c4ccccc4)CC3)c3ccccc3)N2C1=O", "EC50": 53.7}, {"molecule": "CN[C@@H](C)C(=O)N[C@H]1CCS[C@H]2CC(C)(C)[C@@H](C(=O)N[C@H]3c4ccccc4C[C@H]3C(=O)N[C@H]3CC[C@H](NC(=O)[C@@H]4Cc5ccccc5[C@@H]4NC(=O)[C@H]4N5C(=O)[C@@H](NC(=O)[C@H](C)NC)CCS[C@H]5CC4(C)C)CC3)N2C1=O", "EC50": 429}, {"molecule": "CN[C@@H](C)C(=S)N[C@H]1CCS[C@H]2CC(C)(C)[C@@H](C(=O)N[C@H]3c4ccccc4CC[C@H]3C(=O)N[C@H]3CC[C@H](NC(=O)[C@@H]4CCc5ccccc5[C@@H]4NC(=O)[C@H]4N5C(=O)[C@@H](NC(=S)[C@H](C)NC)CCS[C@H]5CC4(C)C)CC3)N2C1=O", "EC50": 6.8}, {"molecule": "CN[C@@H](C)C(=S)N[C@H]1CCS[C@H]2CC(C)(C)[C@@H](C(=O)N[C@H](C(=O)N[C@H]3CC[C@H](NC(=O)[C@@H](NC(=O)[C@H]4N5C(=O)[C@@H](NC(=S)[C@H](C)NC)CCS[C@H]5CC4(C)C)c4ccccc4)CC3)c3ccccc3)N2C1=O", "EC50": 89.5}, {"molecule": "CN[C@@H](C)C(=O)N[C@H]1CCS[C@H]2CC(C)(C)[C@@H](C(=O)N[C@H]3c4ccccc4CC[C@H]3C(=O)N[C@H]3CC[C@H](NC(=O)[C@@H]4CCc5ccccc5[C@@H]4NC(=O)[C@H]4N5C(=O)[C@@H](NC(=O)[C@H](C)NC)CCS[C@H]5CC4(C)C)CC3)N2C1=O", "EC50": 324}]}]}
